Assay results published in PMC6169318 (Organic & biomolecular chemistry, 2017).

Experiments:
[1] = biological target: T1, Sco GlgEI-V279S (Streptomyces coelicolor, UniProt Q9L1K2, V279S); settings: ratio of Ki values
[2] = biological target: T1, Sco GlgEI-V279S; settings: earlier work; cited from earlier work

T1 sequence (Q9L1K2 whole entry V279S): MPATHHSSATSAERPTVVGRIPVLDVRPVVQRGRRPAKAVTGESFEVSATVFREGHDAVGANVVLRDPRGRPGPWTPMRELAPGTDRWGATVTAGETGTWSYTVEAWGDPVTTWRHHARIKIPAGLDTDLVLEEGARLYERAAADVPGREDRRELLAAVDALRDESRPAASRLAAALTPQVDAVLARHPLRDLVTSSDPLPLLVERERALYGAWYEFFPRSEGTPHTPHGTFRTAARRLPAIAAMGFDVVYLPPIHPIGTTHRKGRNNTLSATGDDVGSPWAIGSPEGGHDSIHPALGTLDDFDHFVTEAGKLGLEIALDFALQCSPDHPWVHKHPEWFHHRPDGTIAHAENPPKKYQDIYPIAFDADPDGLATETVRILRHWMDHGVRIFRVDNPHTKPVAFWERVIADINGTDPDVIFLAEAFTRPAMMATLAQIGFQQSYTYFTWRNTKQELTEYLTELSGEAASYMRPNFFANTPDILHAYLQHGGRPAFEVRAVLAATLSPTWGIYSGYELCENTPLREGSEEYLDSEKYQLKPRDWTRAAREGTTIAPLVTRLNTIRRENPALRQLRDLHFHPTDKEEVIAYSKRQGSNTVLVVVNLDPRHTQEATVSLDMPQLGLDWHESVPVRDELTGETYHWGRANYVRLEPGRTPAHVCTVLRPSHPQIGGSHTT

Structure (SMILES)	fold more potent than previously reported inhibitor 4 ([1]; 5 versus 4)	fold more potent than two carbon phosphonate 6 ([1]; 5 versus 6)	inhibitory activity against Sco GlgEI-V279S (in words) [2]
O=P(O)(O)CN1C(CO)C(O)C(O[C@H]2O[C@H](CO)[C@@H](O)[C@H](O)[C@H]2O)C1CO (stereo partly drawn) [Compound 5, ((3-Hydroxy-2,5-bis(hydroxymethyl)-(3-O-α-D-glucopyranosyl)pyrrolidin-1-yl)methyl)phosphonic acid]	2 fold	2 fold	
OC[C@H]1N[C@H](CO)[C@@H](O[C@H]2O[C@H](CO)[C@@H](O)[C@H](O)[C@H]2O)[C@@H]1O [Compound 4, 2,5-dideoxy-3-O-α-D-glucopyranosyl-2,5-imino-D-mannitol]			moderate inhibitory activity
